{"source": "ChEMBL document CHEMBL1152405", "about": "“Bis-anthracenyl isoxazolyl amides have enhanced anticancer activity” (Bioorg Med Chem Lett, 2009)", "type_in_all_cases": "functional", "key": {"[1]": {"system": "NCI-H460", "assay": "Growth inhibition of human NCI-H460 cells after 24 hrs by MTT assay", "conditions": "NCI-H460, 24 h"}, "[2]": {"system": "OVCAR-4", "assay": "Growth inhibition of human OVCAR4 cells after 24 hrs by MTT assay", "conditions": "OVCAR-4, 24 h"}, "[3]": {"system": "T47D", "assay": "Growth inhibition of human T47D cells at 10 uM after 24 hrs by MTT assay relative to control", "set-up": "scale not given: the % may be the effect or the level left"}, "[4]": {"system": "M14", "assay": "Growth inhibition of human M14 cells after 24 hrs by MTT assay", "conditions": "M14, 24 h"}, "[5]": {"system": "SF-268", "assay": "Growth inhibition of human SF268 cells at 10 uM after 24 hrs by MTT assay relative to control", "set-up": "scale not given: the % may be the effect or the level left"}, "[6]": {"system": "DU-145", "assay": "Growth inhibition of human DU145 cells after 24 hrs by MTT assay", "conditions": "DU-145, 24 h"}, "[7]": {"system": "CCRF-CEM", "assay": "Growth inhibition of human CCRF-CEM cells after 24 hrs by MTT assay"}, "[8]": {"system": "RXF 393", "assay": "Growth inhibition of human RXF393 cells at 10 uM after 24 hrs by MTT assay relative to control", "set-up": "scale not given: the % may be the effect or the level left"}, "[9]": {"system": "KM12", "assay": "Growth inhibition of human KM12 cells after 24 hrs by MTT assay", "conditions": "KM12, 24 h"}, "[10]": {"system": "HCT-15", "assay": "Growth inhibition of human HCT15 cells after 24 hrs by MTT assay", "conditions": "HCT-15, 24 h"}, "[11]": {"system": "OVCAR-4", "assay": "Growth inhibition of human OVCAR4 cells at 10 uM after 24 hrs by MTT assay relative to control", "set-up": "scale not given: the % may be the effect or the level left"}, "[12]": {"system": "SNB-19", "assay": "Growth inhibition of human SNB19 cells after 24 hrs by MTT assay", "conditions": "SNB-19, 24 h"}, "[13]": {"system": "DU-145", "assay": "Growth inhibition of human DU145 cells at 10 uM after 24 hrs by MTT assay relative to control", "set-up": "scale not given: the % may be the effect or the level left"}, "[14]": {"system": "SNB-75", "assay": "Growth inhibition of human SNB75 cells after 24 hrs by MTT assay", "conditions": "SNB-75, 24 h"}, "[15]": {"system": "UACC-257", "assay": "Growth inhibition of human UACC257 cells after 24 hrs by MTT assay", "conditions": "UACC-257, 24 h"}, "[16]": {"system": "PC-3", "assay": "Growth inhibition of human PC3 cells after 24 hrs by MTT assay", "conditions": "PC-3, 24 h"}, "[17]": {"system": "TK-10", "assay": "Growth inhibition of human TK10 cells at 10 uM after 24 hrs by MTT assay relative to control", "set-up": "scale not given: the % may be the effect or the level left"}, "[18]": {"conditions": "read-out: pLC50 (the source's name) (converted)"}, "[19]": {"conditions": "read-out: LC50 (the source's name)"}}, "data": [{"smiles": "Cc1onc(-c2c3ccccc3c(Cl)c3ccccc23)c1C(=O)Nc1cc(C(=O)NCCCN(C)CCCNC(=O)c2cc(NC(=O)c3c(-c4c5ccccc5c(Cl)c5ccccc45)noc3C)cn2C)n(C)c1", "values": [{"measurement": "GI50", "setting": "[1]; read-out: pGI50 (converted)", "result": 1050, "unit": "nM"}, {"measurement": "CC50", "setting": "[1]; [18]", "result": 4680, "unit": "nM"}, {"measurement": "TGI", "setting": "[2]", "result": 2880, "unit": "nM"}, {"measurement": "GI50", "setting": "[2]; read-out: GI50", "result": 1490, "unit": "nM"}, {"measurement": "CC50", "setting": "[2]; [19]", "result": 5560, "unit": "nM"}, {"measurement": "GI50", "setting": "[2]; read-out: pGI50 (converted)", "result": 1480, "unit": "nM"}, {"measurement": "CC50", "setting": "[2]; [18]", "result": 5620, "unit": "nM"}, {"measurement": "Activity", "setting": "[3]", "result": -81.41, "unit": "%"}, {"measurement": "TGI", "setting": "[4]", "result": 2800, "unit": "nM"}, {"measurement": "GI50", "setting": "[4]; read-out: GI50", "result": 1480, "unit": "nM"}, {"measurement": "CC50", "setting": "[4]; [19]", "result": 5290, "unit": "nM"}, {"measurement": "GI50", "setting": "[4]; read-out: pGI50 (converted)", "result": 1480, "unit": "nM"}, {"measurement": "CC50", "setting": "[4]; [18]", "result": 5250, "unit": "nM"}, {"measurement": "Activity", "setting": "[5]", "result": -100, "unit": "%"}, {"measurement": "TGI", "setting": "[6]", "result": 2600, "unit": "nM"}, {"measurement": "GI50", "setting": "[6]; read-out: GI50", "result": 1330, "unit": "nM"}, {"measurement": "CC50", "setting": "[6]; [19]", "result": 5100, "unit": "nM"}, {"measurement": "GI50", "setting": "[6]; read-out: pGI50 (converted)", "result": 1320, "unit": "nM"}, {"measurement": "CC50", "setting": "[6]; [18]", "result": 5130, "unit": "nM"}, {"measurement": "TGI", "setting": "[7]", "result": 3550, "unit": "nM"}, {"measurement": "GI50", "setting": "[7]; read-out: GI50", "result": 1600, "unit": "nM"}, {"measurement": "CC50", "setting": "[7]; [19]", "result": 7900, "unit": "nM"}, {"measurement": "GI50", "setting": "[7]; read-out: pGI50 (converted)", "result": 1580, "unit": "nM"}, {"measurement": "CC50", "setting": "[7]; [18]", "result": 7940, "unit": "nM"}, {"measurement": "Activity", "setting": "[8]", "result": -61.83, "unit": "%"}, {"measurement": "TGI", "setting": "[9]", "result": 2630, "unit": "nM"}, {"measurement": "GI50", "setting": "[9]; read-out: GI50", "result": 1350, "unit": "nM"}, {"measurement": "GI50", "setting": "[9]; read-out: pGI50 (converted)", "result": 1350, "unit": "nM"}, {"measurement": "TGI", "setting": "[10]", "result": 3700, "unit": "nM"}, {"measurement": "GI50", "setting": "[10]; read-out: GI50", "result": 1770, "unit": "nM"}, {"measurement": "GI50", "setting": "[10]; read-out: pGI50 (converted)", "result": 1780, "unit": "nM"}, {"measurement": "Activity", "setting": "[11]", "result": -100, "unit": "%"}, {"measurement": "TGI", "setting": "[12]", "result": 3500, "unit": "nM"}, {"measurement": "GI50", "setting": "[12]; read-out: GI50", "result": 1560, "unit": "nM"}, {"measurement": "CC50", "setting": "[12]; [19]", "result": 7860, "unit": "nM"}, {"measurement": "GI50", "setting": "[12]; read-out: pGI50 (converted)", "result": 1550, "unit": "nM"}, {"measurement": "CC50", "setting": "[12]; [18]", "result": 7940, "unit": "nM"}, {"measurement": "Activity", "setting": "[13]", "result": -100, "unit": "%"}, {"measurement": "TGI", "setting": "[14]", "result": 2710, "unit": "nM"}, {"measurement": "GI50", "setting": "[14]; read-out: GI50", "result": 1070, "unit": "nM"}, {"measurement": "CC50", "setting": "[14]; [19]", "result": 6840, "unit": "nM"}, {"measurement": "GI50", "setting": "[14]; read-out: pGI50 (converted)", "result": 1070, "unit": "nM"}, {"measurement": "CC50", "setting": "[14]; [18]", "result": 6920, "unit": "nM"}, {"measurement": "TGI", "setting": "[15]", "result": 4630, "unit": "nM"}, {"measurement": "GI50", "setting": "[15]; read-out: GI50", "result": 2150, "unit": "nM"}, {"measurement": "GI50", "setting": "[15]; read-out: pGI50 (converted)", "result": 2140, "unit": "nM"}, {"measurement": "TGI", "setting": "[16]", "result": 2690, "unit": "nM"}, {"measurement": "GI50", "setting": "[16]; read-out: GI50", "result": 1400, "unit": "nM"}, {"measurement": "CC50", "setting": "[16]; [19]", "result": 5190, "unit": "nM"}, {"measurement": "GI50", "setting": "[16]; read-out: pGI50 (converted)", "result": 1410, "unit": "nM"}, {"measurement": "CC50", "setting": "[16]; [18]", "result": 5250, "unit": "nM"}, {"measurement": "Activity", "setting": "[17]", "result": -89.17, "unit": "%"}]}]}
